Source: patent publication US20240343681A1, “MOLECULES HAVING PESTICIDAL UTILITY AND INTERMEDIATES AND PROCESSES RELATED THERETO” (priority 2021, published 2024)

What was measured:
[1] = system: Beet Armyworm (Spodoptera exigua, LAPHEG) second instar larva; test: Bioassay on beet armyworm (BAW), 128-well diet tray assay; format: in vivo; settings: 50 μg/cm^2 on artificial diet, 25° C., five days
Method in brief: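 Test molecule in 90:10 acetone–water applied at 50 μg/cm^2 onto 1 mL artificial diet and dried; one second-instar larva per well, eight wells. Held 5 days at 25 °C, 14:10 light–dark; percent mortality averaged over the eight wells.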

[2] = system: Yellow Fever Mosquito (Aedes aegypti, AEDSAE) larvae; test: Bioassay on yellow fever mosquito (YFM), 96-well plate larval assay; format: in vivo; settings: 4000 ppm (master plate solution), about 1 day-old larvae, 3 days
Description: Example B: Bioassays on Yellow Fever Mosquito (Aedes aegypti, AEDSAE) (“YFM”)
Master plates containing 400 μg of a molecule dissolved in 100 μL of dimethyl sulfoxide (DMSO) (equivalent to a 4000 ppm solution) are used. A master plate of assembled molecules contains 15 μL per well. To this plate, 135 μL of a 90:10 water/acetone mixture is added to each well. A robot (Biomek® NXP Laboratory Automation Workstation) is programmed to dispense 15 μL aspirations from the master plate into an empty 96-well shallow plate (“daughter” plate). There are 6 reps (“daughter” plates) created per master. The created “daughter” plates are then immediately infested with YFM larvae.
The day before plates are to be treated, mosquito eggs are placed in Millipore water containing liver powder to begin hatching (4 g into 400 mL). After the “daughter” plates are created using the robot, they are infested with 220 μL of the liver powder/larval mosquito mixture (about 1 day-old larvae). After plates are infested with mosquito larvae, a non-evaporative lid is used to cover the plate to reduce drying. Plates are held at room temperature for 3 days prior to grading. After 3 days, each well is observed and scored based on mortality.

Row | Structure (SMILES) | activity against BAW (percent mortality, averaged over eight wells) [1] | activity against YFM (scored based on mortality) [2]
1 | O=C(COCC(F)(F)F)Nc1c(F)ccc(NC(=O)[C@H]2[C@H](c3ccc(F)c(C(F)(F)F)c3)C2(Cl)Cl)c1F (racemic) [F95, trans-rac-2,2-Dichloro-N-(2,4-difluoro-3-(2-(2,2,2-trifluoroethoxy)acetamido)phenyl)-3-(4-fluoro-3-(trifluoromethyl)phenyl)cyclopropane-1-carboxamide] | exhibited activity | exhibited activity
2 | O=C(Nc1cc(NC(=O)[C@H]2[C@H](c3ccc(F)c(C(F)(F)F)c3)C2(Cl)Cl)ccc1Cl)c1ccc(NC(=O)C(F)F)cc1F (racemic) [F111, trans-rac-N-(2-Chloro-5-(2,2-dichloro-3-(4-fluoro-3-(trifluoromethyl)phenyl)cyclopropane-1-carboxamido)phenyl)-4-(2,2-difluoroacetamido)-2-fluorobenzamide] | exhibited activity | exhibited activity
3 | O=C(Nc1cc(NC(=O)[C@H]2[C@H](c3ccc(F)c(C(F)(F)F)c3)C2(Cl)Cl)ccc1Cl)c1ccc(NC(=O)C(F)(F)F)cc1F (racemic) [F112, trans-rac-N-(2-Chloro-5-(2,2-dichloro-3-(4-fluoro-3-(trifluoromethyl)phenyl)cyclopropane-1-carboxamido)phenyl)-2-fluoro-4-(2,2,2-trifluoroacetamido)benzamide] | exhibited activity | exhibited activity
4 | CC(=O)Nc1ccc(C(=O)Nc2cc(NC(=O)[C@H]3[C@H](c4ccc(F)c(C(F)(F)F)c4)C3(Cl)Cl)ccc2Cl)c(C)c1F (racemic) [F113, trans-rac-4-Acetamido-N-(2-chloro-5-(2,2-dichloro-3-(4-fluoro-3-(trifluoromethyl)phenyl)cyclopropane-1-carboxamido)phenyl)-3-fluoro-2-methylbenzamide] | exhibited activity | exhibited activity
5 | Cc1c(C(=O)Nc2cc(NC(=O)[C@H]3[C@H](c4ccc(F)c(C(F)(F)F)c4)C3(Cl)Cl)ccc2Cl)ccc(NC(=O)CC(F)(F)F)c1F (racemic) [F114, trans-rac-N-(2-Chloro-5-(2,2-dichloro-3-(4-fluoro-3-(trifluoromethyl)phenyl)cyclopropane-1-carboxamido)phenyl)-3-fluoro-2-methyl-4-(3,3,3-trifluoropropanamido)benzamide] | exhibited activity | exhibited activity
6 | COCC(=O)Nc1ccc(C(=O)Nc2cc(NC(=O)[C@H]3[C@H](c4ccc(F)c(C(F)(F)F)c4)C3(Cl)Cl)ccc2Cl)c(C)c1F (racemic) [F115, trans-rac-N-(2-Chloro-5-(2,2-dichloro-3-(4-fluoro-3-(trifluoromethyl)phenyl)cyclopropane-1-carboxamido)phenyl)-3-fluoro-4-(2-methoxyacetamido)-2-methylbenzamide] | exhibited activity | exhibited activity
7 | Cc1c(C(=O)Nc2cc(NC(=O)[C@H]3[C@H](c4ccc(F)c(C(F)(F)F)c4)C3(Cl)Cl)ccc2Cl)ccc(NC(=O)COCC(F)(F)F)c1F (racemic) [F116, trans-rac-N-(2-Chloro-5-(2,2-dichloro-3-(4-fluoro-3-(trifluoromethyl)phenyl)cyclopropane-1-carboxamido)phenyl)-3-fluoro-2-methyl-4-(2-(2,2,2-trifluoroethoxy)acetamido)benzamide] | exhibited activity | exhibited activity
8 | CC(=O)Nc1ccc(C(=O)Nc2cc(NC(=O)[C@H]3[C@H](c4ccc(F)c(C(F)(F)F)c4)C3(Cl)Cl)ccc2Cl)c(F)c1 (racemic) [F117, trans-rac-4-Acetamido-N-(2-chloro-5-(2,2-dichloro-3-(4-fluoro-3-(trifluoromethyl)phenyl)cyclopropane-1-carboxamido)phenyl)-2-fluorobenzamide] | exhibited activity | exhibited activity
9 | COCC(=O)Nc1ccc(C(=O)Nc2cc(NC(=O)[C@H]3[C@H](c4ccc(F)c(C(F)(F)F)c4)C3(Cl)Cl)ccc2Cl)c(F)c1 (racemic) [F118, trans-rac-N-(2-Chloro-5-(2,2-dichloro-3-(4-fluoro-3-(trifluoromethyl)phenyl)cyclopropane-1-carboxamido)phenyl)-2-fluoro-4-(2-methoxyacetamido)benzamide] | exhibited activity | exhibited activity
10 | O=C(Nc1c(F)ccc(NC(=O)[C@H]2[C@H](c3cc(Cl)c(Cl)c(Cl)c3)C2(Cl)Cl)c1F)c1ccc(F)cc1F [F10, N-(3-((1R,3R)-2,2-dichloro-3-(3,4,5-trichlorophenyl)cyclopropane-1-carboxamido)-2,6-difluorophenyl)-2,4-difluorobenzamide] | exhibited activity | exhibited activity
11 | O=C(Nc1c(F)ccc(NC(=O)[C@H]2[C@H](c3cc(Cl)c(Cl)c(Cl)c3)C2(Cl)Cl)c1F)C1CCCO1 (stereo partly drawn) [F11, N-(3-((1R,3R)-2,2-Dichloro-3-(3,4,5-trichlorophenyl)cyclopropane-1-carboxamido)-2,6-difluorophenyl)tetrahydrofuran-2-carboxamide] | exhibited activity | exhibited activity
12 | CCCC(=O)Nc1c(F)ccc(NC(=O)[C@H]2[C@H](c3cc(Cl)c(Cl)c(Cl)c3)C2(Cl)Cl)c1F [F14, (1R,3R)—N-(3-Butyramido-2,4-difluorophenyl)-2,2-dichloro-3-(3,4,5-trichlorophenyl)cyclopropane-1-carboxamide] | exhibited activity | exhibited activity
13 | CC(CC(=O)Nc1cccc(NC(=O)[C@H]2[C@H](c3cc(Cl)cc(Cl)c3)C2(Cl)Cl)c1F)C(F)(F)F (stereo partly drawn) [F15, (1R,3R)-2,2-Dichloro-3-(3,5-dichlorophenyl)-N-(2-fluoro-3-(4,4,4-trifluoro-3-methylbutanamido)phenyl)cyclopropane-1-carboxamide] | exhibited activity | exhibited activity
14 | O=C(Nc1cccc(NC(=O)[C@H]2[C@H](c3cc(Cl)cc(Cl)c3)C2(Cl)Cl)c1F)c1ccc(F)cc1F [F16, N-(3-((1R,3R)-2,2-Dichloro-3-(3,5-dichlorophenyl)cyclopropane-1-carboxamido)-2-fluorophenyl)-2,4-difluorobenzamide] | exhibited activity | exhibited activity
15 | CCOC(C)C(=O)Nc1cccc(NC(=O)[C@H]2[C@H](c3cc(Cl)cc(Cl)c3)C2(Cl)Cl)c1F (stereo partly drawn) [F18, (1R,3R)-2,2-Dichloro-3-(3,5-dichlorophenyl)-N-(3-(2-ethoxypropanamido)-2-fluorophenyl)cyclopropane-1-carboxamide] | exhibited activity | exhibited activity
16 | O=C(Nc1cccc(NC(=O)C(F)(F)C(F)(F)C(F)(F)F)c1F)[C@H]1[C@H](c2cc(Cl)cc(Cl)c2)C1(Cl)Cl [F19, (1R,3R)-2,2-Dichloro-3-(3,5-dichlorophenyl)-N-(2-fluoro-3-(2,2,3,3,4,4,4-heptafluorobutanamido)phenyl)cyclopropane-1-carboxamide] | exhibited activity | exhibited activity
17 | CCCC(=O)Nc1cccc(NC(=O)[C@H]2[C@H](c3cc(Cl)cc(Cl)c3)C2(Cl)Cl)c1F [F20, (1R,3R)—N-(3-Butyramido-2-fluorophenyl)-2,2-dichloro-3-(3,5-dichlorophenyl)cyclopropane-1-carboxamide] | exhibited activity | exhibited activity
18 | CC(C#N)C(=O)Nc1cccc(NC(=O)[C@H]2[C@H](c3cc(Cl)cc(Cl)c3)C2(Cl)Cl)c1F (stereo partly drawn) [F22, (1R,3R)-2,2-Dichloro-N-(3-(2-cyanopropanamido)-2-fluorophenyl)-3-(3,5-dichlorophenyl)cyclopropane-1-carboxamide] | exhibited activity | exhibited activity
19 | O=C(Nc1cc(NC(=O)[C@H]2[C@H](c3ccc(F)c(C(F)(F)F)c3)C2(Cl)Cl)ccc1Cl)c1cc(F)cc(F)c1 [F100, N-(2-Chloro-5-((1R,3R)-2,2-dichloro-3-(4-fluoro-3-(trifluoromethyl)phenyl)cyclopropane-1-carboxamido)phenyl)-3,5-difluorobenzamide] | exhibited activity | exhibited activity
